Reference: patent publication US20170145002A1, “DEUTERATED ISOXAZOLE DERIVATIVES AND THEIR USE AS METABOTROPIC GLUTAMATE RECEPTOR POTENTIATORS” (AstraZeneca AB, priority 2015, published 2017)

Experiments:
[1] = target: CYP3A4 (Homo sapiens, UniProt P08684); test: CYP isoform phenotyping; type: in vitro ADME; settings: for Contribution of CYP3A4 to metabolism (in words): assay conditions of Example 8; for CYP 3A4 (% contribution): recombinant human CYP isozymes, parent disappearance
Method: This assay was used to determine whether Compounds A, B, C and D are metabolised by CYP enzymes.
Solutions (200 μmol/L) of each Compound A, B, C and D as well as of positive controls (phenacetin for CYP1A2, coumarin for CYP2A6, bupropion for CYP2B6, amitriptyline for CYP2C8, 2C19, 2D6 and 3A4, diclofenac for CYP2C9, chlorzoxazone for CYP2E1, midazolam for CYP3A5) were prepared by adding 4 μL of a 10 mmol/L stock solution in DMSO to 196 μL of acetonitrile. The recombinant human CYP isozymes were thawed on wet ice (over an hour). Mixtures (2670 μL) of CYP isozymes in phosphate buffer containing 112.36 nmol/L CYP1A2, 2A6, 2B6, 2C8, 2C9, 2C19, 2D6, 2E1, 3A4 or 3A5 were prepared. The CYP isozyme mixture (222.5 [EL), 25 μL of 10 mmol/L of NADPH solution and 2.5 μL of vehicle control (2: 98 DMSO/acetonitrile) were added to the blank control plate. The resulting mixture was mixed on a whirly mixer for 10 seconds before a stop solution (1000 μL) with internal standard containing 200 nmol/L of 5,5-diethyl-1,3-diphenyl-2-iminobarbituric acid and 100 nmol/L of tolbutamide was added. The blank control plate was sealed with a lid and mixed on whirly mixer for 120 seconds, and kept on ice prior to centrifugation.
The standard samples containing 200 pmol/mL hydroxybupropion and 40 pmol/mL 6-hydroxychlorzoxazone were obtained as follows: the CYP isozyme mixture (222.5 μL) and 25 μL of 10 mmol/L NADPH solution were added to separate wells of the blank control plate. 2.5 μL of a 20 nmol/mL hydroxybupropion solution was added to one well and 2.5 μL of a 4 nmol/mL 6-hydroxychlorzoxazone solution was added to the other well. Mixing was conducted on a whirly mixer for 10 seconds. The stop solution with internal standard (1000 μL) was added to both wells. The blank control plate was sealed with a lid and mixing was conducted on a whirly mixer for 120 seconds. The blank control plate was kept on ice prior to centrifugation.
The CYP isozyme mixtures (222.5 μL) and Compounds A, B, C, D and the positive controls (2.5 μL of each 200 μmol/L solution) were added to the incubation plates. Mixing on a whirly mixer was conducted for 10 seconds. The incubation plate was pre-warmed at 37° C. for 15 minutes. The CYP/compound mixture (27 μL) was transferred from the incubation plate to the 0 minute “Quenching plates” containing 120 μL of the stop solution and 3 μL of a 10 mmol/L NADPH solution. The 0 minute “Quenching plates” was sealed with a lid and kept on ice. Mixing of the 0 minute “Quenching plates” on a whirly mixer was conducted for 120 seconds. The reaction was initiated with the addition of 22 μL of a 10 mmol/L of NADPH solution to the incubation plate. Mixing of the incubation mixture on a whirly mixer was conducted for 10 seconds. The incubation was carried out at 37° C. At 5, 10, 15 and 25 minutes, the incubation mixture was mixed on a whirly mixer for 10 seconds and samples of the incubated mixture (30 μL) were transferred at each time point to wells in a separate “Quenching plate” containing 120 μL of the stop solution, which was sealed with a lid and kept on ice. Mixing on a whirly mixer was conducted for 120 seconds. […]
All calculations are carried out using Microsoft Excel. Peak areas were determined from extracted ion chromatograms. The percentage of parent remaining was calculated from peak area of Compounds A, B, C, D and positive controls. […]

[2] = Metabolic stability and intrinsic clearance in human liver microsomes (HLM); type: in vitro ADME; settings: pooled human liver microsomes, NADPH, 37° C., 0.5-30 minutes; for microsomal CLint at 1 μM: read-out: Human Liver Microsomes Median CLint; for half-life at 1 μM: read-out: Human Liver Microsomes Median t1/2
Method: This assay was used to measure the in vitro metabolic stability of Compounds A, B, C and D of the application in pooled human liver microsomes. The concentration of parent compound in the reaction system for calculating intrinsic clearance of the compounds and estimating their stability in pooled human liver microsomes was evaluated by LC/MS/MS. 100 μmol/L solutions of each Compound A, B, C and D as well as 100 μmol/L solutions of each positive control compound (i.e., phenacetin, verapamil, diclofenac, imiprimine, benzydamine and metoprolol) were prepared by adding 2 μL of 10 mmol/L stock solution in DMSO to 198 μL of acetonitrile. A 1.1236 mg/mL HLM mixture was prepared by adding 1325 μL of 20 mg/mL HLM to 22260 μL of phosphate buffer. The HLM mixture (222.5 μL of the 1.1236 mg/mL mixture) and 25 μL of a 10 mM NADPH solution were added to the incubation plates. After mixing on a whirly mixer for 10 seconds, the incubation plates were pre-warmed at 37° C. for 8 minutes. The solutions of Compounds A, B, C and D (2.5 μL of the 100 μM solutions prepared before) as well as positive control solutions (2.5 μL of the 100 μM solutions prepared before) were added to the incubation plate. The incubation mixture was mixed on a whirly mixer for 10 seconds and incubation was carried out at 37° C. The reaction was quenched by transferring 20 μL of the incubated mixture at 0.5, 5, 10, 15, 20 and 30 minutes into the quenching plate containing 100 μL of cold acetonitrile. The quenching plates at 4000 rpm were centrifuged for 20 minutes, placed at 4 ° C. for 30 minutes, then re-centrifuged at 4000 rpm for 20 minutes to precipitate protein. The supernatant of each compound (40 μL) was transferred into a 96-well analysis plate. Compounds A, B, C and D were pooled together into one cassette, and pure water (160 μL) was added in each well. All incubations were performed in singlicate. API 4000 (AB sciex, USA) Ultra mass spectrometer was used to carry out the samples analysis in the MRM mode (MS/MS). Peak areas were determined from extracted ion chromatograms. Percentage of parent compound remaining was calculated from peak area of each compound or positive control. The slope value, k, was determined by linear regression of the natural logarithm of percent parent remaining vs. incubation time curve.
All calculations were carried out using Microsoft Excel. The in vitro half-life (in vitro t1/2) was determined from the slope value, wherein in vitro t1/2=−(0.693/k). Conversion of the in vitrot1/2 (in min) into the in vitro intrinsic clearance (in vitro CLint, in μL/min/mg proteins) was done by using the following equation:
in vitro CLint=(0.693/t1/2)*(volume of incubation (μL)/amount of proteins (mg)).

Chain of CYP3A4 (P08684 whole entry, canonical isoform): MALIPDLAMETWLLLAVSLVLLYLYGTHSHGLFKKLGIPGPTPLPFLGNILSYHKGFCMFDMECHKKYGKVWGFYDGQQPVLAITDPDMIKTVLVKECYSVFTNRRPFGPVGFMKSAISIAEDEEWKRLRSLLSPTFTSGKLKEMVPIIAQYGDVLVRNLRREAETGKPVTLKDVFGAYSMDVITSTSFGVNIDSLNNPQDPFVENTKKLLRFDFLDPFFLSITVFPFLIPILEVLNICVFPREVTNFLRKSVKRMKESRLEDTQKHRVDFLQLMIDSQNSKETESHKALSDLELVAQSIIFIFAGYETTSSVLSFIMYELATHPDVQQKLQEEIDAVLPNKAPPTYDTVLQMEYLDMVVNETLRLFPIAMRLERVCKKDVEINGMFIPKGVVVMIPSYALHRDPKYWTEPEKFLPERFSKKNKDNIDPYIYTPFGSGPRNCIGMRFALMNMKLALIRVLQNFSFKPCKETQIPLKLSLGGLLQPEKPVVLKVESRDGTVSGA

| Contribution of CYP3A4 to metabolism (in words) [1] | microsomal CLint at 1 μM [2] | half-life at 1 μM [2] | CYP 3A4 (% contribution) [1] | SMILES |
| --- | --- | --- | --- | --- |
| no measureable contribution | < 3 µL/min/mg | > 3.85 h | – | [2H]C1([2H])OC([2H])([2H])C([2H])([2H])N(C(=O)c2cc(-c3cc(Cl)c4c(c3)CN([C@@H](C)C3CC3)C4=O)on2)C1([2H])[2H] [Compound A, (S)-7-chloro-2-(1-cyclopropylethyl)-5-(3-(morpholine-4-carbonyl-2,2,3,3,5,5,6,6-d8)isoxazol-5-yl)isoindolin-1-one] |
| – | 9.5 µL/min/mg | 1.22 h | 82.3% | [2H]C1([2H])CN(C(=O)c2cc(-c3cc(Cl)c4c(c3)CN([C@@H](C)C3CC3)C4=O)on2)CC([2H])([2H])O1 [Compound B, (S)-7-chloro-2-(1-cyclopropylethyl)-5-(3-(morpholine-4-carbonyl-2,2,6,6-d4)isoxazol-5-yl)isoindolin-1-one] |
| – | 7 µL/min/mg | 1.66 h | 99.7% | [2H]C1([2H])COCC([2H])([2H])N1C(=O)c1cc(-c2cc(Cl)c3c(c2)CN([C@@H](C)C2CC2)C3=O)on1 [Compound C, (S)-7-chloro-2-(1-cyclopropylethyl)-5-(3-(morpholine-4-carbonyl-3,3,5,5-d4)isoxazol-5-yl)isoindolin-1-one] |
| metabolized predominately by CYP3A4 | 9.5 µL/min/mg | 1.22 h | 100% | C[C@@H](C1CC1)N1Cc2cc(-c3cc(C(=O)N4CCOCC4)no3)cc(Cl)c2C1=O [Compound D, (S)-7-chloro-2-(1-cyclopropylethyl)-5-(3-(morpholine-4-carbonyl)isoxazol-5-yl)isoindolin-1-one, reference compound] |
